Experimental findings from ChEMBL document CHEMBL4715708, “Discovery of 8-Amino-imidazo[1,5-a]pyrazines as Reversible BTK Inhibitors for the Treatment of Rheumatoid Arthritis” (ACS Med Chem Lett, 2016) are described below.

The nature of series [1]: Oral bioavailability in rat at 10 mg/kg. In kind it is ADME, organism-based. The note with it: in vivo.
The nature of series [2]: Volume of distribution at steady state in rat at 4 mg/kg, iv. In kind it is ADME, organism-based. The note with it: in vivo, read-out: Vdss.
Series [3] is described as follows: Tmax in rat at 10 mg/kg, po. In kind it is ADME, organism-based. The note with it: in vivo.
Series [4] is described as follows: Cmax in rat at 10 mg/kg, po. In kind it is ADME, organism-based. Further details: route oral, dose 10 mg/kg. As to conditions: in vivo.
The nature of series [5]: Clearance in rat at 4 mg/kg, iv. The note with it: in vivo. In kind it is ADME, organism-based.
Series [6] in a line: Half life in rat at 4 mg/kg, iv. In kind it is ADME, organism-based. As to conditions: in vivo.
Series [7] can be described thus: Dose normalized AUC in rat at 4 mg/kg, iv. In kind it is ADME, organism-based. The note with it: in vivo.
The nature of series [8]: Volume of distribution at steady state in dog at 1 mg/kg, iv. In kind it is ADME, organism-based, Canis lupus familiaris. As to conditions: in vivo, read-out: Vdss.
Series [9] is described as follows: Oral bioavailability in rat at 5 mg/kg. As to conditions: in vivo. In kind it is ADME, organism-based.
Series [10] is described as follows: Oral bioavailability in dog at 2 mg/kg. In kind it is ADME, organism-based, Canis lupus familiaris. The note with it: in vivo.
Series [11] can be described thus: Dose normalized AUC in rat at 2 mg/kg, iv. In kind it is ADME, organism-based. The note with it: in vivo.
A short description of series [12]: Dose normalized AUC in dog at 1 mg/kg, iv. The note with it: in vivo. In kind it is ADME, organism-based, Canis lupus familiaris.
Series [13] can be described thus: Tmax in dog at 2 mg/kg, po. In kind it is ADME, organism-based, Canis lupus familiaris. The note with it: in vivo.
Series [14] in a line: Half life in rat at 2 mg/kg, iv. In kind it is ADME, organism-based. As to conditions: in vivo.
Series [15] can be described thus: Tmax in rat at 5 mg/kg, po. In kind it is ADME, organism-based. As to conditions: in vivo.
A short description of series [16]: Cmax in dog at 2 mg/kg, po. More on the design: route oral, dose 2 mg/kg. In kind it is ADME, organism-based, Canis lupus familiaris. As to conditions: in vivo.
A short description of series [17]: Clearance in dog at 1 mg/kg, iv. In kind it is ADME, organism-based, Canis lupus familiaris. As to conditions: in vivo.
Series [18] in a line: Clearance in rat at 2 mg/kg, iv. In kind it is ADME, organism-based. The note with it: in vivo.
A short description of series [19]: Cmax in rat at 5 mg/kg, po. In kind it is ADME, organism-based. Further details: route oral, dose 5 mg/kg. As to conditions: in vivo.
The nature of series [20]: Half life in dog at 1 mg/kg, iv. The note with it: in vivo. In kind it is ADME, organism-based, Canis lupus familiaris.
Series [21] is described as follows: Volume of distribution at steady state in rat at 2 mg/kg, iv. In kind it is ADME, organism-based. The note with it: in vivo, read-out: Vdss.
The target in series [22] is Receptor tyrosine-protein kinase erbB-4 (Homo sapiens, UniProt Q15303). Kind of series: Inhibition of human ERBB4.
The target of series [23] is T1, Cytoplasmic tyrosine-protein kinase BMX (Homo sapiens, UniProt P51813).
T1 sequence (P51813 whole entry): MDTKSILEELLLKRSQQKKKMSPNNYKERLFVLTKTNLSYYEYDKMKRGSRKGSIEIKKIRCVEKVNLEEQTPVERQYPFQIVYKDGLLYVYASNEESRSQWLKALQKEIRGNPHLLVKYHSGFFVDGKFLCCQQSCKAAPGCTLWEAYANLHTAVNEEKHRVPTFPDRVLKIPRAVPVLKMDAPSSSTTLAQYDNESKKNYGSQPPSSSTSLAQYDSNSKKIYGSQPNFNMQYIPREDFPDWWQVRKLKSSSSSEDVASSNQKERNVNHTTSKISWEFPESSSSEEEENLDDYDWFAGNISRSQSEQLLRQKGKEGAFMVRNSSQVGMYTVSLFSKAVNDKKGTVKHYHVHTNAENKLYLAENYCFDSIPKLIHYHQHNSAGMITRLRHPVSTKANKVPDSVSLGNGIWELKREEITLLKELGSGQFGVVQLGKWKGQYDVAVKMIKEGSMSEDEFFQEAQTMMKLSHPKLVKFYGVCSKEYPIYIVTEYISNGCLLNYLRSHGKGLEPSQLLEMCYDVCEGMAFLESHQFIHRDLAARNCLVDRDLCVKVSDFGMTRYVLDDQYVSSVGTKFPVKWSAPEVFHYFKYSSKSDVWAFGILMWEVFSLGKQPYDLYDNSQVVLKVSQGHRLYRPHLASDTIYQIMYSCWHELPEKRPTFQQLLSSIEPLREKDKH
As to the kind of experiment: Inhibition of human BMX.

In series [24] the target is Tyrosine-protein kinase CSK (Homo sapiens, UniProt P41240). As to the kind of experiment: Inhibition of human CSK.
Series [25] concerns the target Tyrosine-protein kinase Lyn (Homo sapiens, UniProt P07948). As to the kind of experiment: Inhibition of human LYNB.
Series [26] deals with T2, Tyrosine-protein kinase Tec (Homo sapiens, UniProt P42680).
T2 sequence (P42680 whole entry): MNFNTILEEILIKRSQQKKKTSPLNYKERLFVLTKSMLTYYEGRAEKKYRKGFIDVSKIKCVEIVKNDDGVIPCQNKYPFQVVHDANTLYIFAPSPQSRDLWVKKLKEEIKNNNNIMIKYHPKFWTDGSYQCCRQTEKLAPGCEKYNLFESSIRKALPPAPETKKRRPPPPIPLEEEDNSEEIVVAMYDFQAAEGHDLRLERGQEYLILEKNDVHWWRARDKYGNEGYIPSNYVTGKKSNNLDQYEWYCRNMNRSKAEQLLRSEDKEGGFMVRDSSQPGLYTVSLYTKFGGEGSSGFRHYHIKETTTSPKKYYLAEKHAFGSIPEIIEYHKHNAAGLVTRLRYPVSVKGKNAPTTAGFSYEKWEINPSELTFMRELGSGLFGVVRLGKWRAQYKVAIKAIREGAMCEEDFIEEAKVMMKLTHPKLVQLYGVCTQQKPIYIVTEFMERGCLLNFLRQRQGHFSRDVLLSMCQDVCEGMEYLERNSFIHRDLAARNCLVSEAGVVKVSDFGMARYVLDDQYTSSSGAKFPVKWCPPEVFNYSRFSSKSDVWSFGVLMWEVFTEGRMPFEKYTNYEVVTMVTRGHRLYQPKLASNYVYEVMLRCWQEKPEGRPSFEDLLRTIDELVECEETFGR
As to the kind of experiment: Inhibition of human TEC.

The target in series [27] is Tyrosine-protein kinase Yes (Homo sapiens, UniProt P07947). Kind of series: Inhibition of human YES1.
Chain of Tyrosine-protein kinase Yes (P07947 whole entry): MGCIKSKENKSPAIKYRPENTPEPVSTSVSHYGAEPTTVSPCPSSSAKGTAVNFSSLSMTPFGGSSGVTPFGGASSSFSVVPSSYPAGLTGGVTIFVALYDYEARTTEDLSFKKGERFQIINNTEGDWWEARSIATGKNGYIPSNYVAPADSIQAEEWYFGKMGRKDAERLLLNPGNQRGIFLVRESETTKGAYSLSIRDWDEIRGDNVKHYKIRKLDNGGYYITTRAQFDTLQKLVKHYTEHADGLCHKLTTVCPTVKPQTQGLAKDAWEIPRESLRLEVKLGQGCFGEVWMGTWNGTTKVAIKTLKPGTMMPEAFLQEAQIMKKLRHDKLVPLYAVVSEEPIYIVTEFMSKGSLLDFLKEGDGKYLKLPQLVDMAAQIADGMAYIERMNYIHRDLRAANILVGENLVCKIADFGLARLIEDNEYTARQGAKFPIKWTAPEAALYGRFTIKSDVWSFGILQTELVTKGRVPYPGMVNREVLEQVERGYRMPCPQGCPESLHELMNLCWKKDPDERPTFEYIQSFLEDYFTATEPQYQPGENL
The target in series [28] is Tyrosine-protein kinase Fgr (Homo sapiens, UniProt P09769). As to the kind of experiment: Inhibition of human FGR.
Chain of Tyrosine-protein kinase Fgr (P09769 whole entry): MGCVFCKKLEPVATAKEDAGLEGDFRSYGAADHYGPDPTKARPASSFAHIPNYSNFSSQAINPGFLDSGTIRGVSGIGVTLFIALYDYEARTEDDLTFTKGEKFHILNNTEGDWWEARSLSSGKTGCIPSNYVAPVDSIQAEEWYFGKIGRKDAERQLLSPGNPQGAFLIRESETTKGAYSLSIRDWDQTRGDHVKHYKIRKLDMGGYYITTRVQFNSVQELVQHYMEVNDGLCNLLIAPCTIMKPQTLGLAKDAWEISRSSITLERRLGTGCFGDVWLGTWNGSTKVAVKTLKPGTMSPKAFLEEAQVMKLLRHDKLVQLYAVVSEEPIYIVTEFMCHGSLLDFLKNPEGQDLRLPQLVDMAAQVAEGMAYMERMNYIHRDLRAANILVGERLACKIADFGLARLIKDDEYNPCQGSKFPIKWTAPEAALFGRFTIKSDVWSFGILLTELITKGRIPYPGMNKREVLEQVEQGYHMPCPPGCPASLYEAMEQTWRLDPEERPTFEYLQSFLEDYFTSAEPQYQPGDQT
Series [29] deals with T3, Tyrosine-protein kinase ITK/TSK (Homo sapiens, UniProt Q08881).
T3 sequence (Q08881 whole entry): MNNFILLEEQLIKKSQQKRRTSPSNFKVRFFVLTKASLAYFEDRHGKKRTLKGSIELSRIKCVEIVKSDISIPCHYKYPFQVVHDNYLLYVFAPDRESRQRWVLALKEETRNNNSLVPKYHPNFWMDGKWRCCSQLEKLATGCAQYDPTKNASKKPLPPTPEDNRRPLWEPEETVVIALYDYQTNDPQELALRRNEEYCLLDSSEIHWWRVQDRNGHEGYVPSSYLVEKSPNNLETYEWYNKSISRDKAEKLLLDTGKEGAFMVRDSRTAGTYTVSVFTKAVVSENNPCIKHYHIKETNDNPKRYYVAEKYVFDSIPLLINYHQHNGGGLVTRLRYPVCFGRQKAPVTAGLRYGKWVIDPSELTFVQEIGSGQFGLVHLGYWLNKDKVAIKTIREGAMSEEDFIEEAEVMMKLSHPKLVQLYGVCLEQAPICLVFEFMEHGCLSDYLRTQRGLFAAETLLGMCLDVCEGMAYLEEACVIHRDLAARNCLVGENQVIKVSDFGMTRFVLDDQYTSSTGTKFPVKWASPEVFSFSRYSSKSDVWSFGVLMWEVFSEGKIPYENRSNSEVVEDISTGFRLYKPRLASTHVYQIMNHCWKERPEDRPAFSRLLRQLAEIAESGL
As to the kind of experiment: Inhibition of human ITK.

Series [30] addresses Tyrosine-protein kinase Srms (Homo sapiens, UniProt Q9H3Y6). As to the kind of experiment: Inhibition of human SRMS.
Series [31] has as its target Tyrosine-protein kinase FRK (Homo sapiens, UniProt P42685). As to the kind of experiment: Inhibition of human FRK.
Series [32] deals with Tyrosine-protein kinase Blk (Homo sapiens, UniProt P51451). As to the kind of experiment: Inhibition of human BLK.
Chain of Tyrosine-protein kinase Blk (P51451 whole entry): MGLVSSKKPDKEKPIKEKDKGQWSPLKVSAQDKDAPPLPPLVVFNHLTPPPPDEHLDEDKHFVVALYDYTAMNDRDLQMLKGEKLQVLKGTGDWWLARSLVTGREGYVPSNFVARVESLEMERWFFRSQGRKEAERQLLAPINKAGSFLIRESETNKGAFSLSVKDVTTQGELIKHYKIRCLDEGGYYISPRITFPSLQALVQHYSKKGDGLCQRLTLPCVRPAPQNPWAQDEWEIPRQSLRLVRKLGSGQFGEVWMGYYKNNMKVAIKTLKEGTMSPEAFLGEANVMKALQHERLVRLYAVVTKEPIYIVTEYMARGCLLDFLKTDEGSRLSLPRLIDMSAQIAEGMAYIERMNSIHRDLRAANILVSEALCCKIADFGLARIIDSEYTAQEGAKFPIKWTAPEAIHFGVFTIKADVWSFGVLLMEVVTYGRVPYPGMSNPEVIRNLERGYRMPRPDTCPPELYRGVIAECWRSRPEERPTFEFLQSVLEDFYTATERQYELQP
Series [33] concerns the target Tyrosine-protein kinase Fyn (Homo sapiens, UniProt P06241). As to the kind of experiment: Inhibition of human FYN.
Series [34] has as its target T4, Tyrosine-protein kinase TXK (Homo sapiens, UniProt P42681).
T4 sequence (P42681 whole entry): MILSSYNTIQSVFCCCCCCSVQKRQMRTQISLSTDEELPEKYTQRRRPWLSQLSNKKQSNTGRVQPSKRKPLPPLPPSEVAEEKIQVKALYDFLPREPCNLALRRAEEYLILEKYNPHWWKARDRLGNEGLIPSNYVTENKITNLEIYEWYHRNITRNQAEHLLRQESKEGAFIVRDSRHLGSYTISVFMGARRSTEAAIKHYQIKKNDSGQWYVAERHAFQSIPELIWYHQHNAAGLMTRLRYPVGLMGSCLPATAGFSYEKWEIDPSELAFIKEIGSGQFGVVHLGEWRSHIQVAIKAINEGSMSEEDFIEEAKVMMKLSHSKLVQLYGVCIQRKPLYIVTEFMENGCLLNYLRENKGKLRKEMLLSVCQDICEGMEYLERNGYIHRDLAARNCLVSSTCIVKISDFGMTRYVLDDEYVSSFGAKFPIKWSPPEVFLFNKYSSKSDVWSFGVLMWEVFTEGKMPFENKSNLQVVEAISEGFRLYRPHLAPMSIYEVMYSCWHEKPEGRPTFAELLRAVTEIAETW
As to the kind of experiment: Inhibition of human TXK.

Series [35] addresses Protein-tyrosine kinase 6 (Homo sapiens, UniProt Q13882). Kind of series: Inhibition of human PTK6.
The target in series [36] is Proto-oncogene tyrosine-protein kinase Src (Homo sapiens, UniProt P12931). Kind of series: Inhibition of human SRC.
Chain of Proto-oncogene tyrosine-protein kinase Src (P12931 2-536 limits assumed): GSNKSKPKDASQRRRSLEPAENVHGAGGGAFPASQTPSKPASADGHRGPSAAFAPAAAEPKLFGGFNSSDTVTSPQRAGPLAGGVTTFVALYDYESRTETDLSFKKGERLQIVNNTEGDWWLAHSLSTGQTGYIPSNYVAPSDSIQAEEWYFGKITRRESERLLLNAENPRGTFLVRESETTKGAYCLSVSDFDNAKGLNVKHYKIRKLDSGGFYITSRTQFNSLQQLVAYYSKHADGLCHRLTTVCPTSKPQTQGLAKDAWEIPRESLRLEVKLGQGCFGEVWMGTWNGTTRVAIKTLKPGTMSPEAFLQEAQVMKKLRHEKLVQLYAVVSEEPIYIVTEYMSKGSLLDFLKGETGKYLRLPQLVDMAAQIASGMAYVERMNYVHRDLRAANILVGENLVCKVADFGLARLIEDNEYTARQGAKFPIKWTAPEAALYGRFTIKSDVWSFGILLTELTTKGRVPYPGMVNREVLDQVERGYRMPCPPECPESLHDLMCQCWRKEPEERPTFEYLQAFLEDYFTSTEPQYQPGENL
The target of series [37] is Tyrosine-protein kinase Lck (Homo sapiens, UniProt P06239). As to the kind of experiment: Inhibition of human LCK.
Chain of Tyrosine-protein kinase Lck (P06239 whole entry): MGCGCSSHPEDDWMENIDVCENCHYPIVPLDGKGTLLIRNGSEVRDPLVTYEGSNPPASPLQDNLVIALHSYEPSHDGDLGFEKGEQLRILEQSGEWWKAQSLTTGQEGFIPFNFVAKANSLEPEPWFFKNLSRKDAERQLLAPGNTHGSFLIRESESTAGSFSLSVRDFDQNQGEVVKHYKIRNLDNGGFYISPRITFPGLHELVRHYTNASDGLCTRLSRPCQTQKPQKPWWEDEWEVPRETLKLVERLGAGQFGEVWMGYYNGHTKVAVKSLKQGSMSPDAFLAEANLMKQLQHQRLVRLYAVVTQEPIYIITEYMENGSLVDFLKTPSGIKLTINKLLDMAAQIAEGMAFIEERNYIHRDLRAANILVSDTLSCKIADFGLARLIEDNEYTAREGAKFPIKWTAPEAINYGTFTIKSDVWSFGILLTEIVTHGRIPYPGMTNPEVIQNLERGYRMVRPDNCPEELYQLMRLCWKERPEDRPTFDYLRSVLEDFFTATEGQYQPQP

pIC50: −log10 of the molar value.

Chain of Tyrosine-protein kinase Lyn (P07948 whole entry): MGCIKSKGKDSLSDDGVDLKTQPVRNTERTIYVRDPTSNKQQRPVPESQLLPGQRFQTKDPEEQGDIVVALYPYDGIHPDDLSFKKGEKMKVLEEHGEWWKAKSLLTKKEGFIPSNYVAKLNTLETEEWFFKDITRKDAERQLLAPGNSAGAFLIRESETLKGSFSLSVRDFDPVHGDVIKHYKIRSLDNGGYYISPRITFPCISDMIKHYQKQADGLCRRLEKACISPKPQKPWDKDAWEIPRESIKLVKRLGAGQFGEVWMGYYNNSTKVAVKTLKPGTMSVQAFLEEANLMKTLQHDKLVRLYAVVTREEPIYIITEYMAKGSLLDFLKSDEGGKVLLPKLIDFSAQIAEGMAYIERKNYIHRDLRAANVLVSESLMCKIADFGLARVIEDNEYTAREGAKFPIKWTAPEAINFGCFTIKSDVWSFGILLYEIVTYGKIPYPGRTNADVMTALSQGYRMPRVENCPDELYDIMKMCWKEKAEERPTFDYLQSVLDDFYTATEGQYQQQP
Chain of Protein-tyrosine kinase 6 (Q13882 whole entry): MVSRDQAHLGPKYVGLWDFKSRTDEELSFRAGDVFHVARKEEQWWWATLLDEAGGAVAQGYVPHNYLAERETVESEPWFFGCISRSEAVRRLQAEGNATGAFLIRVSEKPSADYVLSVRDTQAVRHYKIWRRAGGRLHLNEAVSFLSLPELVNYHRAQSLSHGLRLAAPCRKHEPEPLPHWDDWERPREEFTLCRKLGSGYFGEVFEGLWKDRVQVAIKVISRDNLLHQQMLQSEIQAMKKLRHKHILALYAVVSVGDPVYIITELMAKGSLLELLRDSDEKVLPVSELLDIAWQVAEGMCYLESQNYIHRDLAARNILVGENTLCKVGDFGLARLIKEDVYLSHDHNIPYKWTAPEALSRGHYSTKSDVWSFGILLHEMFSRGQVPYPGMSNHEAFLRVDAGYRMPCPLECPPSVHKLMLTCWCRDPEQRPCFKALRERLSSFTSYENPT
Chain of Tyrosine-protein kinase Fyn (P06241 whole entry): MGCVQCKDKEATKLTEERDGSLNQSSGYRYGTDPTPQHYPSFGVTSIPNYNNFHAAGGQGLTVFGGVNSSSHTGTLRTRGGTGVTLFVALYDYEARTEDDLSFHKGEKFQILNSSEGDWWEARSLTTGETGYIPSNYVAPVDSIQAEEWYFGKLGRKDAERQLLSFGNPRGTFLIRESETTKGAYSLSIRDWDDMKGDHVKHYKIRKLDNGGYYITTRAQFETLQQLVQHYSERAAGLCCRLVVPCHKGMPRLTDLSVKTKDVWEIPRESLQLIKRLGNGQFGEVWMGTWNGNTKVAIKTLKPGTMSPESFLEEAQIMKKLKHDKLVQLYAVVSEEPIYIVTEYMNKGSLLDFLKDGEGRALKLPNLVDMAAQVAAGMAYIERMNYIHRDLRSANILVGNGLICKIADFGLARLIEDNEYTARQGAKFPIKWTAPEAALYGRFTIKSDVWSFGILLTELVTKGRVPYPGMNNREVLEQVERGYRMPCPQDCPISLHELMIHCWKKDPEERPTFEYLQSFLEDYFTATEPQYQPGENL
Chain of Tyrosine-protein kinase Srms (Q9H3Y6 whole entry): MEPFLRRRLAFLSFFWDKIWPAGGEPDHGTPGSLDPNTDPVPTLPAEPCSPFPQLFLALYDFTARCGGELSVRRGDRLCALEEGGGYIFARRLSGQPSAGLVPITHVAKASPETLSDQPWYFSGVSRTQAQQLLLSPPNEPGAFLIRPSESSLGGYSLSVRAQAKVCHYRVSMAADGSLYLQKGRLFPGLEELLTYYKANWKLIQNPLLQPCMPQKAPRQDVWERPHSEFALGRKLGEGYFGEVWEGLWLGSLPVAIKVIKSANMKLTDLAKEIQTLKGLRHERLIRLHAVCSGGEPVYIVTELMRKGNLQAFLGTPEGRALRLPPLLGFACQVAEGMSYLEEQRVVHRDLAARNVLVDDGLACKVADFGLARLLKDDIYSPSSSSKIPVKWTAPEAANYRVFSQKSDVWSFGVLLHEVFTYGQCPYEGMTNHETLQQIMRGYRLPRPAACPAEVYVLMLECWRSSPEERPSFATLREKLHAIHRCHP

One may read the bioavailability as the share of a dose that reaches the circulation, judged against a reference dose that is usually intravenous. One may read the Tmax as the time from dosing to the highest level. For orientation: Cmax means the highest concentration seen after dosing. As usually defined, the clearance is a measure of how efficiently the substance is removed, as volume per time. The low end stands for inefficient removal, the high end for efficient removal. One may read the half-life as the time needed for the level to fall by half in the phase considered. The low end stands for fast loss, the high end for slow loss. `CC1(C(=O)N2CCC[C@@H](c3nc(-c4ccc(C(=O)Nc5cc(C(F)(F)F)ccn5)cc4)c4c(N)nccn34)C2)COC1` yielded a bioavailability in series [1] of 84%. In [2], the Vd is 0.59 L/kg. In addition, in series [3], the Tmax was 2.2 h. Also, in series [4], the Cmax came out at 4800 nM. For the same molecule, in [5], the clearance is 6.3 mL/min/kg. The molecule further showed a half-life in series [6] of 1.2 h. Further, in series [7], the AUC/dose was 5.1 µM·h.
As for `C[C@H]1CC[C@@H](c2nc(-c3ccc(C(=O)Nc4cc(C(F)(F)F)ccn4)cc3F)c3c(N)nccn23)CN1C(=O)C1CC1`, the Vd came out at 0.65 L/kg in series [8] and 2.6 L/kg in [21]. The bioavailability turned out to be 22% in series [9] and 82% in series [10]. Also, the values for the AUC/dose in series [11] and in series [12] were 1.6 µM·h and 20 µM·h, respectively. The Tmax was 2 h in [13] and 1 h in series [15]. Also, the half-life in series [14] is 1.8 h; in [20], 6.5 h. The Cmax in series [16] was 3900 nM; in series [19], 400 nM. For the same molecule, the clearance in series [17] worked out at 1.5 mL/min/kg; in series [18], 18 mL/min/kg.
By pIC50 is commonly meant the negative decadic logarithm of the IC50, by convention in mol/L. `CC1(C(=O)N2CCC[C@@H](c3nc(-c4ccc(C(=O)Nc5cc(C(F)(F)F)ccn5)cc4F)c4c(N)nccn34)C2)COC1`: the pIC50 is 7.09 in series [22]; 7.70 in series [23]; 6.60 in [24]; 6.74 in [25]; 7.16 in series [26]; 7.37 in [27]. Also, the pIC50 was 7.26 in series [28]; 6.04 in [29]; 7.62 in series [30]; 6.73 in series [31]; 7.38 in [32]; 6.49 in series [33]. The pIC50 in series [34] is 7.49; in [35] it was 7.20; in series [36] it was 6.94; in [37] it was 7.66. Moreover, the results for the Vd in [8] and in series [21] were 2 L/kg and 1.7 L/kg, respectively. Moreover, the figures for the bioavailability in series [9] and in [10] were 77% and 60%, respectively. For the same molecule, the AUC/dose in series [11] amounted to 1.1 µM·h; in series [12], 3 µM·h. Also, the Tmax in series [13] was 1 h; in [15] it was 0.5 h. Besides, the half-life in [14] is 1.4 h; in [20] it was 4.1 h. The figures for the Cmax in series [16] and in series [19] were 780 nM and 1000 nM, respectively. The clearance in [17] was 11 mL/min/kg; in [18] it was 24 mL/min/kg.
